Measured values reported in paper PMC4685510, “A Cell Biologist’s Field Guide to Aurora Kinase Inhibitors” (Frontiers in Oncology, 2015).

Legend:
HeLa cells [1] = experiment: Cytokinesis assay (live imaging, YFP-α-tubulin; H2B-RFP), HeLa; assay type: cell-based, human; conditions: Homo sapiens; HeLa; cytokinesis failure; read-out: Cytokinesis IC50
RPE1 cells = experiment: Cytokinesis assay (live imaging, YFP-α-tubulin; H2B-RFP), RPE1; assay type: cell-based; conditions: Homo sapiens, RPE-1; RPE1; cytokinesis failure; read-out: Cytokinesis IC50
U2OS cells = experiment: Cytokinesis assay (live imaging, YFP-α-tubulin; H2B-RFP), U2OS; assay type: cell-based; conditions: Homo sapiens, cytokinesis failure, read-out: Cytokinesis IC50
Aurora A-TPX2 = conditions: ref 61; read-out: Aurora A-TPX2 Ki (Published); cited from earlier work
[2] = biological target: 363 human kinases (including Aurora A/B/C) (Homo sapiens, UniProt P00519); experiment: biochemical; assay type: biochemical; conditions: ABL1, [ATP] 40 µM
From the text: (§1) However, the Aurora A/B selectivity ratios derived from our in vitro and in vivo data can be compared to prioritize inhibitors.

[3] = biological target: T1, 363 human kinases (including Aurora A/B/C) (Homo sapiens, UniProt P36888); experiment: biochemical; assay type: biochemical; conditions: FLT3, [ATP] 50 µM
T1 sequence (P36888 27-993): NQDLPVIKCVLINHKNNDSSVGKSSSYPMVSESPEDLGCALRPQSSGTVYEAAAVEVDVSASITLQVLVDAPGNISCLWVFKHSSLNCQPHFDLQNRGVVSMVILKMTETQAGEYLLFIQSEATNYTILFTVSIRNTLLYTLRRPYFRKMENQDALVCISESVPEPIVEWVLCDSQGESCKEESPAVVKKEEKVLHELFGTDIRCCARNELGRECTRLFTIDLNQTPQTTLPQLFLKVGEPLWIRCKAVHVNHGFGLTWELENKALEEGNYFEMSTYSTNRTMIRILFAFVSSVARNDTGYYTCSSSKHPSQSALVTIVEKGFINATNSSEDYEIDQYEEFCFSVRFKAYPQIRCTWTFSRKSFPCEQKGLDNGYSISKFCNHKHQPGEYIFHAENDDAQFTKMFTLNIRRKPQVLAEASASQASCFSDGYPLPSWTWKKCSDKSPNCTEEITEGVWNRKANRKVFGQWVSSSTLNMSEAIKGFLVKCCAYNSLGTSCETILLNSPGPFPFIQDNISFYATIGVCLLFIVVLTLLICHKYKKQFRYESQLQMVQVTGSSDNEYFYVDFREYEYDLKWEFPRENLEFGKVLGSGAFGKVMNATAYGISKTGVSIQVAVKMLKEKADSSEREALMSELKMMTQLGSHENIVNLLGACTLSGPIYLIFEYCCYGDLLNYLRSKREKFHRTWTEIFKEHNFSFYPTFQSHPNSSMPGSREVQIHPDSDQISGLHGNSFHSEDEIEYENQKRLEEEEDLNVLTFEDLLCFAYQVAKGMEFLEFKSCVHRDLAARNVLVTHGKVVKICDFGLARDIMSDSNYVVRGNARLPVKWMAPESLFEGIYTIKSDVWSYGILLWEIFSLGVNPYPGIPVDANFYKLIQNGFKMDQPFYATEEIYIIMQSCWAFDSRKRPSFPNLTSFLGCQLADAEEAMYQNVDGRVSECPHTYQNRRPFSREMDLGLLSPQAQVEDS
From the text: as §1

[4] = biological target: 363 human kinases (including Aurora A/B/C) (Homo sapiens, UniProt P48730); experiment: biochemical; assay type: biochemical; conditions: CK1d, [ATP] 20 µM
From the text: as §1

HeLa cells [5] = experiment: G2 duration live imaging assay (GFP-PCNA; H2B-RFP), HeLa; assay type: cell-based, human
Aurora B/INCENP^783–918 = biological target: T2, Aurora B/INCENP^783–918 (Homo sapiens, UniProt Q96GD4); experiment: Aurora B/INCENP^783–918 kinase assay (ADP-Glo); assay type: biochemical
T2 construct: purchased SignalChem

[6] = biological target: 363 human kinases (including Aurora A/B/C) (Homo sapiens, UniProt Q16584); experiment: biochemical; assay type: biochemical; conditions: MLK3/MAP3K11, 500 nM
From the text: as §1

Aurora A = conditions: ref 57; read-out: Aurora A IC50 (Published); cited from earlier work
Aurora A/TPX2^1–43 = biological target: T3, Aurora A/TPX2^1–43 (Homo sapiens, UniProt O14965); experiment: Aurora A/TPX2^1–43 kinase assay (ADP-Glo)
T3 sequence (O14965 1-403): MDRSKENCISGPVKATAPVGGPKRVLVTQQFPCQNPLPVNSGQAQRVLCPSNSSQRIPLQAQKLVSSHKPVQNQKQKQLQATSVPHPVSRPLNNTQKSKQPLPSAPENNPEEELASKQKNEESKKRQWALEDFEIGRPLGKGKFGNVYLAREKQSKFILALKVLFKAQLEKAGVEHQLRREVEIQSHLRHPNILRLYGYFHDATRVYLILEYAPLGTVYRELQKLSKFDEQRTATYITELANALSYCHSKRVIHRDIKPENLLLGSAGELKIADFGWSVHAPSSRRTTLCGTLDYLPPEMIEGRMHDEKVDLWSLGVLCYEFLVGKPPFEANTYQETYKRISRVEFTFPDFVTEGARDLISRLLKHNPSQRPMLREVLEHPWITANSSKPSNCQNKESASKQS
T3 sequence (Q9ULW0 1-43 partner limits assumed): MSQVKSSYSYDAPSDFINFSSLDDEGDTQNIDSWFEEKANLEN

[7] = tested on: HeLa, RPE1, and U2OS cells; experiment: Cellular proliferation analysis (ATPLite, 24 h); conditions: HeLa, RPE1, U2OS; 24 h (Figure 4D, Figure S2B)
[8] = biological target: T4, full-length human Aurora A (Homo sapiens, UniProt O14965); experiment: Aurora A kinase assay (ADP-Glo, Kemptide substrate)
T4 sequence (O14965 1-403): T3 sequence (O14965 1-403)

[9] = 100 nM, read-out: % Enzyme Activity (relative to DMSO controls)
[10] = 500 nM, read-out: % Enzyme Activity (relative to DMSO controls)
[11] = Homo sapiens, read-out: G2/M (G2 duration) IC50, HeLa
[12] = read-out: G2/M (G2 duration) IC50
[13] = fold difference in potency calculated by dividing Ki values

T2 sequence (Q96GD4 whole entry): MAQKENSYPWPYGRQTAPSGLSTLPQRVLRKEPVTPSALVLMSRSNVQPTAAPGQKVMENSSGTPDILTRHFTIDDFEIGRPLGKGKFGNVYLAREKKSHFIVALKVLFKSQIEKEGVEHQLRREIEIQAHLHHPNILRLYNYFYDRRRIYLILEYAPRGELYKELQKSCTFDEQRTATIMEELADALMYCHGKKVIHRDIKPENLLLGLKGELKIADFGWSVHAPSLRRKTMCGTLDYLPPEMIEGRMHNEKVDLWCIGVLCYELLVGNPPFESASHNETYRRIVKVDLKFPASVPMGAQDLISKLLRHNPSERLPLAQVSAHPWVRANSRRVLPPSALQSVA
T2 sequence (Q9NQS7 783-918 partner limits assumed): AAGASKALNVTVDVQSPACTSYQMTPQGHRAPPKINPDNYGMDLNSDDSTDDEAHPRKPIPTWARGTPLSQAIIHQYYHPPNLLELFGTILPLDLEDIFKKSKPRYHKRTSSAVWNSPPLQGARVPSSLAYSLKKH
Chain of 363 human kinases (including Aurora A/B/C) (Homo sapiens, UniProt P00519) (P00519 whole entry): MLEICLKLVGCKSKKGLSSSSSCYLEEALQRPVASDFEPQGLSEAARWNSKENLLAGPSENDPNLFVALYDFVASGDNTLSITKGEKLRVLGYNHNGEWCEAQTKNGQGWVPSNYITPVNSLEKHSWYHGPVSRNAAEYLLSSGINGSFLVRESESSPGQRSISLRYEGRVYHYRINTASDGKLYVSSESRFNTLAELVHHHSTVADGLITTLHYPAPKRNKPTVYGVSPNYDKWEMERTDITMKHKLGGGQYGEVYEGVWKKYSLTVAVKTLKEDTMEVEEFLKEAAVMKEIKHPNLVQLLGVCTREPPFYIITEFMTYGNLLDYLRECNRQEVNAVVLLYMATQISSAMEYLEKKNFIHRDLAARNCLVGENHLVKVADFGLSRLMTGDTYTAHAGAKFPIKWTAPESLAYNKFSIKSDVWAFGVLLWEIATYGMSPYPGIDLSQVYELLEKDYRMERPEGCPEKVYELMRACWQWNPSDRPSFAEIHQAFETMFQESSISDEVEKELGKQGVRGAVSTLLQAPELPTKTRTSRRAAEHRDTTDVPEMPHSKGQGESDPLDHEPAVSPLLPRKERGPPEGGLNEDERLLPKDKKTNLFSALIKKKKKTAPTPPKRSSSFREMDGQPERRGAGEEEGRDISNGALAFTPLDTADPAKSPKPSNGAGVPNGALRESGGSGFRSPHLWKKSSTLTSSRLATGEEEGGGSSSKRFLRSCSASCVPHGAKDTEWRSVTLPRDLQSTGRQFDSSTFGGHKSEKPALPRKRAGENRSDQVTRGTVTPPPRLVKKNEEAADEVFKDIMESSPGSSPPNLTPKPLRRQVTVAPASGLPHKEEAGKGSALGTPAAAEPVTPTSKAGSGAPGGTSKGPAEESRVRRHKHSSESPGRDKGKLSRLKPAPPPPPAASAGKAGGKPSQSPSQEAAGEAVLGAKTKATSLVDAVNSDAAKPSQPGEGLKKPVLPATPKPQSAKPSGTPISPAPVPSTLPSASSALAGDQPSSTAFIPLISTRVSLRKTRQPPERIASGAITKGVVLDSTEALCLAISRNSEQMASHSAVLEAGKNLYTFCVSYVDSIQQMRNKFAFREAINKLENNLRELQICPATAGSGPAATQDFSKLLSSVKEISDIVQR
Chain of 363 human kinases (including Aurora A/B/C) (Homo sapiens, UniProt P48730) (P48730 whole entry): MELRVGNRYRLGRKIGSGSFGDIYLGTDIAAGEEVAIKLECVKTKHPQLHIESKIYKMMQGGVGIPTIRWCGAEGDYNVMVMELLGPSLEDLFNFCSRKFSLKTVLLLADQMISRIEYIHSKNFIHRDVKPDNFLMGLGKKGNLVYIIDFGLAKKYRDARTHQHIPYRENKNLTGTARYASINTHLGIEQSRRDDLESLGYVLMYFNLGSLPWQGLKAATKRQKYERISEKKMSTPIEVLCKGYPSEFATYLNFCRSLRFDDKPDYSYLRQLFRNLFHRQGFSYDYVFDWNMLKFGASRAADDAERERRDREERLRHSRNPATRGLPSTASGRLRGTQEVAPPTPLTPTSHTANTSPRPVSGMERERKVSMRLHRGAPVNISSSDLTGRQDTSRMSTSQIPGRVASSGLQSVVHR
Chain of 363 human kinases (including Aurora A/B/C) (Homo sapiens, UniProt Q16584) (Q16584 whole entry): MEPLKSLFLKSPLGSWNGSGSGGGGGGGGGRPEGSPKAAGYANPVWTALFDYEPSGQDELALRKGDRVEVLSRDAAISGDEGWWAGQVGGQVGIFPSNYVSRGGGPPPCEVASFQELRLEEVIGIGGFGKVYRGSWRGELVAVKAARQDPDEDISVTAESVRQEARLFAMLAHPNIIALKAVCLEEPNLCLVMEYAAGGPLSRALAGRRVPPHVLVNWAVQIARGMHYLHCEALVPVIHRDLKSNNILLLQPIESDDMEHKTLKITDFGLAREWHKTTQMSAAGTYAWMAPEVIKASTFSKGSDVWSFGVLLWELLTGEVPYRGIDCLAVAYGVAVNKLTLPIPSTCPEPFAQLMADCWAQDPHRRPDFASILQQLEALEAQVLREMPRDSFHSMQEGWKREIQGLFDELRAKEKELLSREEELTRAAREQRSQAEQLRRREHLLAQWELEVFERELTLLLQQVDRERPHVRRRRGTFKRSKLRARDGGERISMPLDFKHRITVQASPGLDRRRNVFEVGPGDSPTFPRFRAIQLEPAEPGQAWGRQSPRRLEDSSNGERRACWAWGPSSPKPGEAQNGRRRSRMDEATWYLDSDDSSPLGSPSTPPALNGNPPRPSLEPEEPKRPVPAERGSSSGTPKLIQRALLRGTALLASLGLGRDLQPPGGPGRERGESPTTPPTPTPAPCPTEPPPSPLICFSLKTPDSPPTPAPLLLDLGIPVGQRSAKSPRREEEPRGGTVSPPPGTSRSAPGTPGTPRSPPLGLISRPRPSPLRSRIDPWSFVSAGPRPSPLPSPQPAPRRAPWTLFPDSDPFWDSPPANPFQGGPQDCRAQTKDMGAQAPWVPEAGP

## CCn1cc(-c2ccnc3[nH]c(-c4cccc(CN(C)C)c4)cc23)c(-c2ccc(NC(=O)N(C)C)cc2)n1 [GSK1070916]
HeLa cells [1]
  IC50: 6 nM
RPE1 cells
  IC50: 21 nM
U2OS cells
  IC50: 6 nM
Aurora A-TPX2
  Ki: 492 nM

## O=C(O)[C@]1(Cc2cccc(Nc3nccs3)n2)CC[C@@H](Oc2cccc(Cl)c2F)CC1 [MK-5108]
[2]; [9]
  remaining activity at 0.1 µM: 15.6%
[2]; [10]
  remaining activity at 0.5 µM: 1.92%
[3]; [9]
  remaining activity at 0.1 µM: 58.2%
[3]; [10]
  remaining activity at 0.5 µM: 30.9%
[4]; [9]
  remaining activity at 0.1 µM: 100%
[4]; [10]
  remaining activity at 0.5 µM: 86.8%
HeLa cells [5]; [11]
  IC50: 600 to 800 nM
HeLa cells [5]; [12]
  IC50: 816 nM

## O=C(c1cccc(Cl)c1F)N1CCN(Cc2cccc(Nc3nccs3)n2)CC1 [MK-8745]
Aurora B/INCENP^783–918; Aurora B INCENP^783-918 Ki (example dataset, Figure 2D), calculated from the example IC50
  Ki: 58.8 nM
Aurora B/INCENP^783–918; Aurora B-INCENP^783–918 Ki Mean ± SD, [ATP] = Km(ATP) (10 μM)
  Ki: 66.8 ± 19.6 nM
Aurora B/INCENP^783–918; [ATP] = Km(ATP), example dataset
  IC50: 118 nM
[2]; 500 nM
  % Enzyme Activity (relative to DMSO controls): 76.80%
[2]; [10]
  remaining activity at 0.5 µM: 77.7%
[3]; 500 nM
  % Enzyme Activity (relative to DMSO controls): 88.10%
[3]; [10]
  remaining activity at 0.5 µM: 88.4%
[4]; 500 nM
  % Enzyme Activity (relative to DMSO controls): 85.06%
[4]; [10]
  remaining activity at 0.5 µM: 85.5%
[6]
  % Enzyme Activity (relative to DMSO controls): 92.79%
[6]; read-out: % Enzyme Activity (relative to DMSO controls)
  remaining activity at 0.5 µM: 94.8%
HeLa cells [5]; [11]
  IC50: 600 to 800 nM
HeLa cells [5]; [12]
  IC50: 596 nM
Aurora A
  IC50: 0.6 nM
Aurora A/TPX2^1–43
  IC50: 0.83 nM
Aurora A/TPX2^1–43; Aurora A TPX2^1-43 Ki (example dataset, Figure 2D), calculated from the example IC50
  Ki: 0.36 nM
Aurora A/TPX2^1–43; Aurora A-TPX2^1–43 Ki Mean ± SD, [ATP] = Km(ATP) (3 μM), 40 nM TPX2^1–43
  Ki: 0.41 ± 0.06 nM
Aurora A/TPX2^1–43; [13]
  Selectivity ratio Aur A-TPX2^1–43 versus Aur B-INCENP^783–918: 162 fold
[7]
  Toxicity / cytotoxicity (cellular proliferation): not cytotoxic
[8]
  IC50: 0.23 nM
[8]; Aurora A Ki Mean ± SD, [ATP] = Km(ATP) (35 μM), Ki calculated from IC50 with tight-binding equation
  Ki: 0.06 ± 0.004 nM
[8]; [13]
  Selectivity ratio Aur A versus Aur A-TPX2^1–43: 6.3 fold
  Selectivity ratio Aur A versus Aur B-INCENP^783–918: 1030 fold
